Experimental data reported in article PMC11117721, “A Fast-Binding, Functionally Reversible, COX-2 Radiotracer for CNS PET Imaging” (ACS Central Science, 2024).

Experiments:
COX-2 [1] = target: T1, COX-2 (Homo sapiens, UniProt P35354); experiment: PET imaging of h-Thy1 COX-2 transgenic mice; type: in vivo, mouse; set-up: FLAG; P2A linker remnant (GFP cassette co-expressed, separated by P2A); host or cells: rat striatal (caudate putamen) neurons transduced in vivo with AAV2, human synapsin promoter; conditions: for SUV Average (9–21 min): h-Thy1 COX-2 mice (n = 5)
T1 sequence (P35354 18-604): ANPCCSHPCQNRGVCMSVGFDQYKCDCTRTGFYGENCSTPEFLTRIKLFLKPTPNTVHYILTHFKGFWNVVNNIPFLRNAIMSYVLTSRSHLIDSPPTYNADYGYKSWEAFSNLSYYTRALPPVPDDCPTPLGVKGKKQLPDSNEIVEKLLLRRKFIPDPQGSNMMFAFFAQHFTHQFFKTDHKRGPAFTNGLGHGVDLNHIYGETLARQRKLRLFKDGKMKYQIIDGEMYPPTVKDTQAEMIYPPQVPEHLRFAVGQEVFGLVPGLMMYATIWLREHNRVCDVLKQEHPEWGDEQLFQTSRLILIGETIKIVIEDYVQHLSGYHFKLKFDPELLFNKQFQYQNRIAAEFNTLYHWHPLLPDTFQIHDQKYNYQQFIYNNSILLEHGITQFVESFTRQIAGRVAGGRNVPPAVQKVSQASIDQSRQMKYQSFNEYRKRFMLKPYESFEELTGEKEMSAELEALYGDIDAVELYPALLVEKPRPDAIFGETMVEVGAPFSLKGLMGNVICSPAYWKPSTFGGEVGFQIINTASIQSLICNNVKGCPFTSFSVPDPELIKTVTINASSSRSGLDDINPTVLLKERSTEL
Excerpt: (§1) We performed additional validation of [^11C]BRD1158 through in vivo PET imaging of an hCOX-2 transgenic mouse line (Figure 3), which overexpressed human COX-2 primarily in neurons (Strain No. 010703, Jackson Laboratories). […] While we did perform contralateral sham (control virus) injections in the AAV rats to assess potential injection confounds, as COX-2 is part of the injury and inflammation response, it was important to validate in a model naïve to brain insult to mitigate how aspects of the AAV rat experimental design could have misled our interpretations of tracer specific binding.
(§2) In accordance with Massachusetts General Hospital Institutional Animal Care and Use Committee (IACUC) protocols, Sprague Dawley rats (300-500g, Charles River Laboratories), wildtype mice (Strain C57BL/6J), and human Thy-1-COX-2 transgenic line 303 mice (Strain 010703, Jackson Laboratories) were used in these studies. All animals were housed in a standard animal facility with access to conventional rodent food and water ad libitum and a 12 -hour day/night schedule. All animals were allowed to acclimate before any experime ntal procedures. Only male animals were used for imaging experiments .
(§3) Animals were induced under anesthesia using 1 -3% isoflurane in a carrier of 1.0 -1.5 L/min oxygen.
(§4) Maintenance of isoflurane depended on procedure and species, rats 2 -3% and mice 1-2%. Rats undergoing surgeries had higher isoflurane maintenance at 3 -4%. After induction, the animals’ body temperatures were regulated using a support heating pad or fan throughout all experiments.
(§5) Respiratory rates and body temperature were monitored through all imaging and surgical procedures, generally using a respiratory pad and rectal probe. Injections were made through the lateral tail vein.
(§6) Rats were cannulated with an IV extension using a 60 in, 0.3 mL volume IV extender (Smith Medical) and a 24 ga x 0.75 in IV catheter (McKesson). Mice were cannulated with Intramedic PE10 tubing (BD […]
(§7) Group 2 animals then […]
received one 4µL ICV injection of AAV2-GFP-hCOX2 to the Rcpu and one 4µL ICV injection of AAV2-GFP to the Lcpu, an injection paradigm that successfully led to robust, localized, unilateral COX -2 expression that we could use to compare radiotracers (Figure 2, SI Figure 8). Another rat (animal ID SD2006080) received one 4µL ICV injection of AAV2-GFP-hCOX2 to the Rcpu and no left caudate sham injection (SI
Figure 9). All surgical procedures were performed aseptically. Once rats were prepared and secured with a stereotaxic device (Stoelting Co, Wood Dale, IL), bregma was located. […]
A 33 -gauge neuro syringe (Hamilton, Reno, NV) was inserted around DV 3.5 mm for one injection. I njections were given slowly and the needle was kept in for 15 min to allow for adequate perfusion. […]

COX-2 [2] = target: T2, COX-2 (Mus musculus, UniProt Q05769); experiment: PET imaging of wild-type mice (controls); type: in vivo; conditions: WT mice (n = 4)
T2 construct: from tissue; host or cells: brain of living wild-type mice (Strain C57BL/6J)
T2 sequence (Q05769 18-604): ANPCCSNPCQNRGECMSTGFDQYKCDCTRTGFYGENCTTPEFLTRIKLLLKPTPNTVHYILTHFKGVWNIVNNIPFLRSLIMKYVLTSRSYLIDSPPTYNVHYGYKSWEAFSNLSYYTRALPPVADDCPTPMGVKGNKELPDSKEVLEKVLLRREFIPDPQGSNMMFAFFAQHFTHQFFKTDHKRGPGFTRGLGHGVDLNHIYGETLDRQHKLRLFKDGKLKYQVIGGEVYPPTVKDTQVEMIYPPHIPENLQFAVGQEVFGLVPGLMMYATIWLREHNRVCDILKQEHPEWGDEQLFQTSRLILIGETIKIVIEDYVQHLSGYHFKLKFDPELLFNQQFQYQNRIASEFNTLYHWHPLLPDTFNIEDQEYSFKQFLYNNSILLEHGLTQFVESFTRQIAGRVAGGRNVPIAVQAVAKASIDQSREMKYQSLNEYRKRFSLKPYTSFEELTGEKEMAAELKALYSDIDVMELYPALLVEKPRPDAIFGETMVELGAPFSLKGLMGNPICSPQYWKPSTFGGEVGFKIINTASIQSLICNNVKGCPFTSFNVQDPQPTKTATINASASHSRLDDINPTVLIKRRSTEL
Excerpt: as §1, §2, §3, §4, §5, §6, §7

[11CH3]S(=O)(=O)c1ccc(-c2cccc(NCc3ccoc3)n2)cc1 [[^11C]BRD1158]
SUV Average (9–21 min) (COX-2 [1]; cerebellum): 1.84 ± 0.56 | SUV Average (9–21 min) (COX-2 [1]; cortex): 1.68 ± 0.50 | SUV Average (9–21 min) (COX-2 [1]; striatum): 1.95 ± 0.55 | time to significant signal differentiation from wild-type controls (COX-2 [1]; hCOX-2 transgenic mice): 10 to 20 min | SUV Average (9–21 min) (COX-2 [2]; cerebellum): 0.376 ± 0.02 | SUV Average (9–21 min) (COX-2 [2]; cortex): 0.359 ± 0.04 | SUV Average (9–21 min) (COX-2 [2]; striatum): 0.385 ± 0.05
